Results published in BindingDB's records for doi:10.1016/s0960-894x(01)00765-x (Bristol Myers Squibb, 2002).

Molecular target: T1, Neuropeptide Y receptor type 1 (Homo sapiens, UniProt P25929)
T1 sequence (P25929 whole entry): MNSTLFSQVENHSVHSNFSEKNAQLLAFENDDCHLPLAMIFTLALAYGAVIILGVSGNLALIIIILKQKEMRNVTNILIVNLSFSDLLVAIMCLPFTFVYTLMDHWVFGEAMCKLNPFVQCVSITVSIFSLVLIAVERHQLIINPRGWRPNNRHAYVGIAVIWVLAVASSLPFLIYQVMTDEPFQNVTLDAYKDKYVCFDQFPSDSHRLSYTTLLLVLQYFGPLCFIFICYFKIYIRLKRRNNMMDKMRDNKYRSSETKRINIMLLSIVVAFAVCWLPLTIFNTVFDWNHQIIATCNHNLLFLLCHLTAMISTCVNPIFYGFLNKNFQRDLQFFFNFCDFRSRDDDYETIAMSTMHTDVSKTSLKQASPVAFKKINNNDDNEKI
Test: ChEBML_143683
From the text: Binding affinity against Neuropeptide Y receptor type 1 using I-PYY as a radioligand in human neuroblastoma SK-N-MC cells

| IC50 | Structure (SMILES) |
| --- | --- |
| > 1000 nM | COC(=O)C1=C(C)N=C(C)C(C(=O)OC)N1c1cccc(NC(=S)NCCCN2CCC(C(C)(C)C)CC2)c1 (configuration not stated) [1-(3-{3-[3-(4-tert-Butyl-piperidin-1-yl)-propyl]-thioureido}-phenyl)-3,5-dimethyl-1,4-dihydro-pyrazine-2,6-dicarboxylic acid dimethyl ester] |
| > 1000 nM | COC(=O)C1=C(C)N=C(C)C(C(=O)OC)N1c1cccc(NC(=S)NCCCN2CCN(C3CCCCC3)CC2)c1 (configuration not stated) [1-(3-{3-[3-(4-Cyclohexyl-piperazin-1-yl)-propyl]-thioureido}-phenyl)-3,5-dimethyl-1,4-dihydro-pyrazine-2,6-dicarboxylic acid dimethyl ester] |
